Assay results as given in patent US10167262B2, “Herbicidal substituted 3-arylpyrazoles” (FMC CORPORATION, priority 2014, dated 2019).
Where two headings read alike, the source gives them in different places.

Assays:
Type in all cases: in vivo
[1] = tested on: oilseed rape (Brassica napus); assay: Test C pre-/postemergence greenhouse test, plant response rating 0-100; conditions: Preemergence
Outline: (§1)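 Pre- and postemergence greenhouse test: seeds sown in loam/sand and treated preemergence, or plants at 2–18 cm (1- to 4-leaf stage) in peat-based medium sprayed postemergence, with compounds in non-phytotoxic solvent plus surfactant. Visual rating versus untreated controls after 13–15 days, 0 (no effect) to 100 (complete control).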

[2] = tested on: morningglory (Ipomoea coccinea); assay: as above; conditions: Ipomoea; for pest or weed control at 62 g/ha: 62 g ai/ha; for pest or weed control at 125 g/ha: 125 g ai/ha; for pest or weed control at 250 g/ha: 250 g ai/ha
Outline: as §1

[3] = tested on: galium (catchweed bedstraw, Galium aparine); assay: as above; conditions: Galium; for pest or weed control at 62 g/ha: 62 g ai/ha; for pest or weed control at 125 g/ha: 125 g ai/ha; for pest or weed control at 250 g/ha: 250 g ai/ha
Outline: as §1

[4] = tested on: kochia (Kochia scoparia); assay: Test C postemergence greenhouse test, plant response rating 0-100; conditions: Bassia scoparia, post-emergence
Outline: (§2)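 Response is a visual 0–100 control rating taken 13 to 15 days post-treatment, with a dash marking no result. Plants ranged 2 to 18 cm when treated postemergence.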

[5] = tested on: wild oat (Avena fatua); assay: as above; conditions: Avena fatua, post-emergence
Outline: as §2

[6] = tested on: chickweed (common chickweed, Stellaria media); assay: as above; conditions: Stellaria media, post-emergence
Outline: as §2

[7] = tested on: morningglory (Ipomoea spp.); assay: Test A pre-/postemergence greenhouse herbicide test, visual injury rating 0-100; conditions: for pest or weed control at 500 g/ha: 500 g ai/ha
Outline: (§3)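 Each species was treated both before emergence, via soil spray onto a loam–sand blend, and after emergence at the one- to two-leaf stage. Plants stayed in the greenhouse around 10 days before visual injury assessment.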

[8] = tested on: large (Lg) crabgrass (Digitaria sanguinalis); assay: as above; conditions: for pest or weed control at 500 g/ha: 500 g ai/ha
Outline: as §3

[9] = tested on: barnyardgrass (Echinochloa crus-galli); assay: as above; conditions: for pest or weed control at 500 g/ha: 500 g ai/ha
Outline: as §3

[10] = tested on: velvetleaf (Abutilon theophrasti); assay: as above; conditions: for pest or weed control at 500 g/ha: 500 g ai/ha
Outline: as §3

[11] = tested on: pigweed (Amaranthus retroflexus); assay: as above; conditions: for pest or weed control at 500 g/ha: 500 g ai/ha
Outline: as §3

[12] = tested on: wheat (Triticum aestivum); assay: as above; conditions: for plant injury at 500 g/ha: 500 g ai/ha
Outline: as §3

[13] = tested on: corn (Zea mays); assay: as above; conditions: for plant injury at 500 g/ha: 500 g ai/ha
Outline: as §3

[14] = tested on: giant foxtail (Setaria faberii); assay: as above; conditions: for pest or weed control at 500 g/ha: 500 g ai/ha
Outline: as §3

[15] = post-emergence, Postemergence, read-out: Plant response rating (0 to 100), Morningglory
[16] = post-emergence, Postemergence, scale 0 to 100
[17] = pre-emergence, Preemergence, read-out: Plant response rating, Morningglory
[18] = pre-emergence, Preemergence, 500 g ai/ha
[19] = post-emergence, Postemergence, read-out: Plant response rating (0 to 100), Galium
[20] = pre-emergence, Preemergence, read-out: Plant response rating, Galium

`Cn1cc(C(=O)c2ccccc2)c(-c2cc(Cl)cc(Cl)c2)n1` [Compound 54, [3-(3,5-dichlorophenyl)-1-methyl-1H-pyrazol-4-yl]phenylmethanone] was tested, and the “Plant response rating, Oilseed Rape” value ([1]; 62 g ai/ha) was 0, the “Plant response rating, Oilseed Rape” value ([1]; 125 g ai/ha) was 0 and the “Plant response rating, Oilseed Rape” value ([1]; 250 g ai/ha) was 0. The “Plant response rating, Oilseed Rape” value ([1]; 500 g ai/ha) was 5, the pest or weed control at 62 g/ha [2, 15] was 0% and the pest or weed control at 125 g/ha [2, 15] was 0%. For the same compound, the pest or weed control at 250 g/ha [2, 16] was 0%, the pest or weed control at 62 g/ha [2, 17] was 0% and the pest or weed control at 125 g/ha [2, 17] was 0%. The pest or weed control at 250 g/ha ([2]; pre-emergence, Preemergence) was 15%, the pest or weed control at 500 g/ha [2, 18] was 40% and the pest or weed control at 31 g/ha ([3]; post-emergence, Postemergence, 31 g ai/ha, read-out: Plant response rating (0 to 100), Galium) was 0%. It also gave a pest or weed control at 62 g/ha [3, 19] of 0%, a pest or weed control at 125 g/ha [3, 19] of 0% and a pest or weed control at 250 g/ha [3, 16] of 5%. For the same compound, the pest or weed control at 62 g/ha [3, 20] was 0%, the pest or weed control at 125 g/ha [3, 20] was 0% and the pest or weed control at 250 g/ha ([3]; pre-emergence, Preemergence) was 0%. It also gave a pest or weed control at 500 g/ha [3, 18] of 5%, a pest or weed control at 62 g/ha ([4]; 62 g ai/ha) of 60% and a pest or weed control at 125 g/ha ([4]; 125 g ai/ha) of 65%. The pest or weed control at 250 g/ha ([4]; 250 g ai/ha, scale 0 to 100) was 70%, the pest or weed control at 62 g/ha ([5]; 62 g ai/ha) was 0% and the pest or weed control at 125 g/ha ([5]; 125 g ai/ha) was 0%. The pest or weed control at 250 g/ha ([5]; 250 g ai/ha, scale 0 to 100) was 0%, the pest or weed control at 31 g/ha ([6]; 31 g ai/ha) was 0% and the pest or weed control at 62 g/ha ([6]; 62 g ai/ha) was 90%. It also gave a pest or weed control at 125 g/ha ([6]; 125 g ai/ha) of 100%, a pest or weed control at 250 g/ha ([6]; 250 g ai/ha, scale 0 to 100) of 100% and a pest or weed control at 125 g/ha ([7]; Ipomoea, post-emergence, 240 h, Postemergence, 125 g ai/ha, read-out: Plant response rating (0 to 100 scale), Morningglory) of 0%. For the same compound, the pest or weed control at 500 g/ha ([7]; Ipomoea, post-emergence, 240 h, Postemergence, read-out: Plant response rating (0 to 100 scale), Morningglory) was 0%, the pest or weed control at 500 g/ha ([7]; Ipomoea, pre-emergence, 240 h, Preemergence, read-out: Plant response rating (0 to 100 scale), Morningglory) was 0% and the “Morningglory plant response rating (0 = no effect, 100 = complete control)” value ([7]; Preemergence, 125 g ai/ha) was 0. It also gave a pest or weed control at 125 g/ha ([8]; Digitaria sanguinalis, post-emergence, 240 h, Postemergence, 125 g ai/ha, read-out: Plant response rating (0 to 100 scale), Crabgrass, Large) of 0%, a pest or weed control at 500 g/ha ([8]; Digitaria sanguinalis, post-emergence, 240 h, Postemergence, read-out: Plant response rating (0 to 100 scale), Crabgrass, Large) of 0% and a pest or weed control at 500 g/ha ([8]; Digitaria sanguinalis, pre-emergence, 240 h, Preemergence, read-out: Plant response rating (0 to 100 scale), Crabgrass, Large) of 0%. The “Crabgrass, Large plant response rating (0 = no effect, 100 = complete control)” value ([8]; Preemergence, 125 g ai/ha) was 0, the pest or weed control at 125 g/ha ([9]; Echinochloa crus-galli, post-emergence, 240 h, Postemergence, 125 g ai/ha, read-out: Plant response rating (0 to 100 scale), Barnyardgrass) was 0% and the pest or weed control at 500 g/ha ([9]; Echinochloa crus-galli, post-emergence, 240 h, Postemergence, read-out: Plant response rating (0 to 100 scale), Barnyardgrass) was 0%. The pest or weed control at 500 g/ha ([9]; Echinochloa crus-galli, pre-emergence, 240 h, Preemergence, read-out: Plant response rating (0 to 100 scale), Barnyardgrass) was 0%, the “Barnyardgrass plant response rating (0 = no effect, 100 = complete control)” value ([9]; Preemergence, 125 g ai/ha) was 0 and the pest or weed control at 125 g/ha ([10]; Abutilon theophrasti, post-emergence, 240 h, Postemergence, 125 g ai/ha, read-out: Plant response rating (0 to 100 scale), Velvetleaf) was 90%. The pest or weed control at 500 g/ha ([10]; Abutilon theophrasti, post-emergence, 240 h, Postemergence, read-out: Plant response rating (0 to 100 scale), Velvetleaf) was 100%, the pest or weed control at 500 g/ha ([10]; Abutilon theophrasti, pre-emergence, 240 h, Preemergence, read-out: Plant response rating (0 to 100 scale), Velvetleaf) was 60% and the “Velvetleaf plant response rating (0 = no effect, 100 = complete control)” value ([10]; Preemergence, 125 g ai/ha) was 30. The pest or weed control at 125 g/ha ([11]; Amaranthus retroflexus, post-emergence, 240 h, Postemergence, 125 g ai/ha, read-out: Plant response rating (0 to 100 scale), Pigweed) was 90%, the pest or weed control at 500 g/ha ([11]; Amaranthus retroflexus, post-emergence, 240 h, Postemergence, read-out: Plant response rating (0 to 100 scale), Pigweed) was 100% and the pest or weed control at 500 g/ha ([11]; Amaranthus retroflexus, pre-emergence, 240 h, Preemergence, read-out: Plant response rating (0 to 100 scale), Pigweed) was 90%. The “Pigweed plant response rating (0 = no effect, 100 = complete control)” value ([11]; Preemergence, 125 g ai/ha) was 50, the “Wheat plant response rating (0 = no effect, 100 = complete control)” value ([12]; Preemergence, 125 g ai/ha) was 0 and the plant injury at 125 g/ha ([12]; Triticum aestivum, post-emergence, 240 h, Postemergence, 125 g ai/ha, read-out: Plant response rating (0 to 100 scale), Wheat) was 0%. The plant injury at 500 g/ha ([12]; Triticum aestivum, post-emergence, 240 h, Postemergence, read-out: Plant response rating (0 to 100 scale), Wheat) was 0%, the plant injury at 500 g/ha ([12]; Triticum aestivum, pre-emergence, 240 h, Preemergence, read-out: Plant response rating (0 to 100 scale), Wheat) was 0% and the “Corn plant response rating (0 = no effect, 100 = complete control)” value ([13]; Preemergence, 125 g ai/ha) was 0. The plant injury at 125 g/ha ([13]; Zea mays, post-emergence, 240 h, Postemergence, 125 g ai/ha, read-out: Plant response rating (0 to 100 scale), Corn) was 0%, the plant injury at 500 g/ha ([13]; Zea mays, post-emergence, 240 h, Postemergence, read-out: Plant response rating (0 to 100 scale), Corn) was 0% and the plant injury at 500 g/ha ([13]; Zea mays, pre-emergence, 240 h, Preemergence, read-out: Plant response rating (0 to 100 scale), Corn) was 0%. For the same compound, the “Foxtail, Giant plant response rating (0 = no effect, 100 = complete control)” value ([14]; Preemergence, 125 g ai/ha) was 0, the pest or weed control at 125 g/ha ([14]; Setaria faberi, post-emergence, 240 h, Postemergence, 125 g ai/ha, read-out: Plant response rating (0 to 100 scale), Foxtail, Giant) was 0% and the pest or weed control at 500 g/ha ([14]; Setaria faberi, post-emergence, 240 h, Postemergence, read-out: Plant response rating (0 to 100 scale), Foxtail, Giant) was 0%. For the same compound, the pest or weed control at 500 g/ha ([14]; Setaria faberi, pre-emergence, 240 h, Preemergence, read-out: Plant response rating (0 to 100 scale), Foxtail, Giant) was 0%.
